From patent US4640926A, “3,5-Substituted-2-pyridylalkylaminothiadiazoles having histamine H1 -antagonist activity” (Smith Kline & French Laboratories Limited, priority 1982, dated 1987)

How the values were obtained:
histamine H1 -receptor = biological target: T1, histamine H1 -receptor (Cavia porcellus, UniProt P31389); assay: guinea pig ileum test (histamine H1-antagonist activity in vitro); format: cell-based; conditions: isolated guinea pig ileum, histamine-induced contraction, 8 min contact, 30° C., Schild plot; read-out: pA2 value (converted)
T1 construct: an isolated portion of the guinea pig ileum is secured under tension; from tissue; host or cells: isolated guinea pig ileum
Procedure: In this test an isolated portion of the guinea pig ileum is secured under tension (500 mg) between an anchorage and a transducer in a 10 ml tissue bath and immersed in magnesium free Tyrode solution with constant aeration at a temperature of 30° C. The output from the transducer is amplified. The amplified output is in turn fed to a flat bed recorder. Measured amounts of histamine are added to the tissue bath so that the histamine concentration increases step-wise until the force of the contraction reaches a maximum. The tissue bath is washed out and filled with fresh magnesium free Tyrode solution containing compound under test. The solution is left in contact with the tissue for 8 min. and measured amounts of histamine are added again until a maximum contraction is recorded. The assay is repeated with increasing concentrations of test compound and the dose of histamine giving 50% of maximum contraction is noted. A dose ratio (DR) was calculated by comparing the concentrations of histamine required to produce 50% maximum response in the absence and in the presence of the antagonist. A plot of Log DR-1 against Log D (the concentration of compound under test) is made and the point of intersection with the Log (DR-1) ordinate is taken as the measure of the activity (pA2 value).

histamine H2 -receptor = biological target: T2, histamine H2 -receptor (Cavia porcellus, UniProt P47747); assay: guinea pig atrium test (histamine H2-antagonist activity in vitro); format: cell-based; conditions: isolated guinea pig right atrium, histamine-stimulated rate of beating, 60 min contact, 37° C., Schild plot; read-out: pA2 value (converted)
T2 construct: isolated portion of the guinea pig right atrium is secured under tension; from tissue; host or cells: isolated guinea pig right atrium
Procedure: The histamine H2 -antagonist activity of the compounds of formula (1) can be determined in vitro in the guinea pig atrium test. In this test a spontaneously beating isolated portion of the guinea pig right atrium is secured under tension (300 mg) between an anchorage and a transducer in a 15 ml tissue bath and immersed in McEwens solution with constant aeration at a temperature of 37° C. The output from the transducer is amplified. Output is in turn fed to a flat bed recorder. Measured amounts of histamine are added to the tissue bath so that the histamine concentration increases step-wise until the rate of beating reaches a maximum. The tissue bath is washed out and filled with fresh McEwens solution containing compound under test. The solution is left in contact with the tissue for 60 min. and measured amounts of histamine are added again until a maximum rate is recorded. The assay is repeated with increasing concentrations of test compound and the dose of histamine giving 50% of maximum rate is noted. A dose ratio (DR) was calculated by comparing the concentrations of histamine required to produce 50% maximum response in the absence and in the presence of the antagonist. A plot of Log DR-1 against Log D (the concentration of compound under test) is made and the point of intersection with the Log (DR-1) ordinate is taken as the measure of the activity (pA2 value).

T1 sequence (P31389 whole entry): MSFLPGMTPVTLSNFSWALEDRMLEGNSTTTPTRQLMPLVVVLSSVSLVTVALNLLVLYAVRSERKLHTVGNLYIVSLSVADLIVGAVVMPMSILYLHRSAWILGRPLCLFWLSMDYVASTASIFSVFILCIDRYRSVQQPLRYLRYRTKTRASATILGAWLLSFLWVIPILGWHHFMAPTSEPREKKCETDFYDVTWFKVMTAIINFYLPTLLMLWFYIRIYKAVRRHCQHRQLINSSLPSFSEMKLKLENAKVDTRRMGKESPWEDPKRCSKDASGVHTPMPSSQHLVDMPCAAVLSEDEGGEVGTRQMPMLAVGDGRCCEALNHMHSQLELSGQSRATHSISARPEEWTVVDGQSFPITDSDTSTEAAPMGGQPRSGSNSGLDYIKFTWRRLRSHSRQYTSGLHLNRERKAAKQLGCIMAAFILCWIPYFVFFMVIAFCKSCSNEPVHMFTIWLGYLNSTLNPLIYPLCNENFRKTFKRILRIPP
T2 sequence (P47747 whole entry): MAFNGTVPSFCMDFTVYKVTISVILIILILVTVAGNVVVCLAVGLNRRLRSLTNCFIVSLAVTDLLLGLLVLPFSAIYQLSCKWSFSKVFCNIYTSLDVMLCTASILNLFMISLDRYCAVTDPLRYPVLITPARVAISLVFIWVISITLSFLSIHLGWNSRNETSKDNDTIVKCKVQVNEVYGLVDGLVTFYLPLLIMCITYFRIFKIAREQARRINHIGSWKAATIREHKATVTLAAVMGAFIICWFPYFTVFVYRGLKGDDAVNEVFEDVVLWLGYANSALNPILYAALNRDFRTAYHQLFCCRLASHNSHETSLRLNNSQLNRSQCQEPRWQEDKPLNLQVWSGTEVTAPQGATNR

| Kb (histamine H1 -receptor) | Kb (histamine H2 -receptor) | SMILES |
| --- | --- | --- |
| < 0.01 µM | > 10 µM | CNC(=NCCCCc1ncc(Br)cc1C)NC#N [Example 1, N-cyano-N'-methyl-N"-[4-(5-bromo-3-methylpyrid-2-yl)-butyl]-guanidine] |
| < 0.01 µM | > 10 µM | Cc1cc(Br)cnc1CCCCN=C(NC#N)NCc1ccccc1 [Example 2, N-cyano-N'-benzyl-N"-[4-(5-bromo-3-methylpyrid-2-yl)-butyl]-guanidine] |
